Earlier results as cited in US8673971B2, “Derivatives of 4-nerolidylcatechol, pharmaceutical compositions comprising them and process for producing the same” (Instituto Nacional de Pesquisa de Amazonia INPA, priority 2007, dated 2014).

How the values were obtained:
[1] = tests based on co-oxidation of substrate (β-carotene, linoleic acid); greater than α-tocoferol

- water solubility: low water solubility
SMILES: C=CC(C)(CCC=C(C)CCC=C(C)C)c1ccc(O)c(O)c1 (centres unmarked) [4-nerolidylcatechol]
- in vitro antioxidant activity relative to α-tocoferol [1]: 20 times
